Reference: patent publication US6559170B1, “Pyridine derivatives having fungicidal activity and processes to produce and use same” (Dow AgroScience LLC, priority 1999, dated 2003)

Tests used:
[1] = tested on: Leptosphaeria nodorum—LEPTNO; test: Glume blotch of wheat, 1-day protectant whole plant test; type: in vivo; conditions: 100 ppm spray, 1-day protectant (1DP), wheat cultivar Monon
[2] = tested on: Puccinia recondita—PUCCRT; test: Brown rust of wheat, 1-day protectant whole plant test; type: in vivo; conditions: 100 ppm spray, 1-day protectant (1DP), wheat cultivar Monon
[3] = tested on: Phytophthora infestans—PHYTIN; type: in vivo; conditions: 100 ppm spray, 1-day protectant (1DP), tomatoes cultivar Rutgers
[4] = tested on: Erysiphe graminis—ERYSGT; test: Powdery Mildew of Wheat, 1-day protectant whole plant test; type: in vivo; conditions: 100 ppm spray, 1-day protectant (1DP), wheat cultivar Monon

CNC(=O)C(=NOC)c1ccccc1COc1cccc(Sc2cccc(C(F)(F)F)c2)n1 [Compound 22]
LEPTNO percent control of the plant disease compared with untreated, inoculated plants [1]: 78% | PUCCRT percent control of the plant disease compared with untreated, inoculated plants [2]: 98% | PHYTIN percent control of the plant disease compared with untreated, inoculated plants [3]: 100% | ERYSGT percent control of the plant disease compared with untreated, inoculated plants [4]: 92%

CNC(=O)C(=NOC)c1ccccc1COc1cccc(Sc2ccc(Cl)cc2)n1 [Compound 20]
LEPTNO percent control of the plant disease compared with untreated, inoculated plants [1]: 98% | PUCCRT percent control of the plant disease compared with untreated, inoculated plants [2]: 100% | PHYTIN percent control of the plant disease compared with untreated, inoculated plants [3]: 100% | ERYSGT percent control of the plant disease compared with untreated, inoculated plants [4]: 92%

CNC(=O)C(=NOC)c1ccccc1COc1nc(Sc2ccc(Cl)cc2)c(Cl)cc1Cl [Compound 11]
LEPTNO percent control of the plant disease compared with untreated, inoculated plants [1]: 0% | PUCCRT percent control of the plant disease compared with untreated, inoculated plants [2]: 89% | PHYTIN percent control of the plant disease compared with untreated, inoculated plants [3]: 44% | ERYSGT percent control of the plant disease compared with untreated, inoculated plants [4]: 69%

CNC(=O)C(=NOC)c1ccccc1COc1cccc(Sc2ccc(Cl)cc2C)n1 [Compound 28]
LEPTNO percent control of the plant disease compared with untreated, inoculated plants [1]: 98% | PUCCRT percent control of the plant disease compared with untreated, inoculated plants [2]: 100% | PHYTIN percent control of the plant disease compared with untreated, inoculated plants [3]: 100% | ERYSGT percent control of the plant disease compared with untreated, inoculated plants [4]: 98%

CNC(=O)C(=NOC)c1cccc(Cl)c1COc1ccc(Sc2cccc(C)c2)cn1 [Compound 7, 2-Methoxyimino-N-methyl-{3-chloro-2-[5-(3-methylphenyl)thio-2-pyridyloxy]methylphenyl}acetamide]
LEPTNO percent control of the plant disease compared with untreated, inoculated plants [1]: 98% | PUCCRT percent control of the plant disease compared with untreated, inoculated plants [2]: 100% | PHYTIN percent control of the plant disease compared with untreated, inoculated plants [3]: 100% | ERYSGT percent control of the plant disease compared with untreated, inoculated plants [4]: 98%

CNC(=O)C(=NOC)c1ccccc1COc1cccc(Sc2ccc(F)cc2)n1 [Compound 24]
LEPTNO percent control of the plant disease compared with untreated, inoculated plants [1]: 98% | PUCCRT percent control of the plant disease compared with untreated, inoculated plants [2]: 100% | PHYTIN percent control of the plant disease compared with untreated, inoculated plants [3]: 100% | ERYSGT percent control of the plant disease compared with untreated, inoculated plants [4]: 85%

CNC(=O)C(=NOC)c1cccc(Cl)c1COc1ccc(Sc2ccc(Cl)cc2)cn1 [Compound 5, 2-Methoxyimino-N-methyl-{3-chloro-2-[5-(4-chlorophenyl)thio-2-pyridyloxy]methylphenyl}acetamide]
LEPTNO percent control of the plant disease compared with untreated, inoculated plants [1]: 98% | PUCCRT percent control of the plant disease compared with untreated, inoculated plants [2]: 100% | PHYTIN percent control of the plant disease compared with untreated, inoculated plants [3]: 99% | ERYSGT percent control of the plant disease compared with untreated, inoculated plants [4]: 85% | melting point: 116 to 118 °C

CNC(=O)C(=NOC)c1ccccc1COc1cccc(Sc2ccccc2C)n1 [Compound 17]
LEPTNO percent control of the plant disease compared with untreated, inoculated plants [1]: 98% | PUCCRT percent control of the plant disease compared with untreated, inoculated plants [2]: 100% | PHYTIN percent control of the plant disease compared with untreated, inoculated plants [3]: 100% | ERYSGT percent control of the plant disease compared with untreated, inoculated plants [4]: 92%

CNC(=O)C(=NOC)c1ccccc1COc1cccc(Sc2cccc(Cl)c2)n1 [Compound 23]
LEPTNO percent control of the plant disease compared with untreated, inoculated plants [1]: 78% | PUCCRT percent control of the plant disease compared with untreated, inoculated plants [2]: 100% | PHYTIN percent control of the plant disease compared with untreated, inoculated plants [3]: 100% | ERYSGT percent control of the plant disease compared with untreated, inoculated plants [4]: 98%

CNC(=O)C(=NOC)c1ccccc1COc1cccc(Sc2ccccc2)n1 [Compound 14]
LEPTNO percent control of the plant disease compared with untreated, inoculated plants [1]: 89% | PUCCRT percent control of the plant disease compared with untreated, inoculated plants [2]: 100% | PHYTIN percent control of the plant disease compared with untreated, inoculated plants [3]: 100% | ERYSGT percent control of the plant disease compared with untreated, inoculated plants [4]: 92%

CNC(=O)C(=NOC)c1ccccc1COc1cccc(Sc2cccc(F)c2)n1 [Compound 30]
LEPTNO percent control of the plant disease compared with untreated, inoculated plants [1]: 98% | PUCCRT percent control of the plant disease compared with untreated, inoculated plants [2]: 100% | PHYTIN percent control of the plant disease compared with untreated, inoculated plants [3]: 100% | ERYSGT percent control of the plant disease compared with untreated, inoculated plants [4]: 98%

CNC(=O)C(=NOC)c1ccccc1COc1ccc(C(F)(F)F)c(Sc2ccccc2)n1 [Compound 12]
LEPTNO percent control of the plant disease compared with untreated, inoculated plants [1]: 78% | PUCCRT percent control of the plant disease compared with untreated, inoculated plants [2]: 100% | PHYTIN percent control of the plant disease compared with untreated, inoculated plants [3]: 94% | ERYSGT percent control of the plant disease compared with untreated, inoculated plants [4]: 98%

CCc1ccccc1Sc1cccc(OCc2ccccc2C(=NOC)C(=O)NC)n1 [Compound 33]
LEPTNO percent control of the plant disease compared with untreated, inoculated plants [1]: 98% | PUCCRT percent control of the plant disease compared with untreated, inoculated plants [2]: 100% | PHYTIN percent control of the plant disease compared with untreated, inoculated plants [3]: 100% | ERYSGT percent control of the plant disease compared with untreated, inoculated plants [4]: 92%

CNC(=O)C(=NOC)c1ccccc1COc1cccc(Sc2ccc3ccccc3c2)n1 [Compound 21]
LEPTNO percent control of the plant disease compared with untreated, inoculated plants [1]: 98% | PUCCRT percent control of the plant disease compared with untreated, inoculated plants [2]: 100% | PHYTIN percent control of the plant disease compared with untreated, inoculated plants [3]: 100% | ERYSGT percent control of the plant disease compared with untreated, inoculated plants [4]: 92%

CNC(=O)C(=NOC)c1cccc(Cl)c1COc1ccc(Sc2cccc(Cl)c2)cn1 [Compound 8, 2-Methoxyimino-N-methyl-{3-chloro-2-[5-(3-chlorophenyl)thio-2-pyridyloxy]methylphenyl}acetamide]
LEPTNO percent control of the plant disease compared with untreated, inoculated plants [1]: 98% | PUCCRT percent control of the plant disease compared with untreated, inoculated plants [2]: 98% | PHYTIN percent control of the plant disease compared with untreated, inoculated plants [3]: 100% | ERYSGT percent control of the plant disease compared with untreated, inoculated plants [4]: 98%

CNC(=O)C(=NOC)c1ccccc1COc1nc(Sc2ccc(C(F)(F)F)cc2)c(Cl)cc1Cl [Compound 13]
LEPTNO percent control of the plant disease compared with untreated, inoculated plants [1]: 0% | PUCCRT percent control of the plant disease compared with untreated, inoculated plants [2]: 98% | PHYTIN percent control of the plant disease compared with untreated, inoculated plants [3]: 0% | ERYSGT percent control of the plant disease compared with untreated, inoculated plants [4]: 98%

CNC(=O)C(=NOC)c1cccc(F)c1COc1cccc(Sc2ccccc2)n1 [Compound 34]
LEPTNO percent control of the plant disease compared with untreated, inoculated plants [1]: 98% | PUCCRT percent control of the plant disease compared with untreated, inoculated plants [2]: 100% | PHYTIN percent control of the plant disease compared with untreated, inoculated plants [3]: 94% | ERYSGT percent control of the plant disease compared with untreated, inoculated plants [4]: 85%

CNC(=O)C(=NOC)c1ccccc1COc1nc(Sc2ccccc2)c(Cl)cc1Cl [Compound 10]
LEPTNO percent control of the plant disease compared with untreated, inoculated plants [1]: 98% | PUCCRT percent control of the plant disease compared with untreated, inoculated plants [2]: 100% | PHYTIN percent control of the plant disease compared with untreated, inoculated plants [3]: 96% | ERYSGT percent control of the plant disease compared with untreated, inoculated plants [4]: 99%

CNC(=O)C(=NOC)c1ccccc1COc1cccc(Sc2ccccc2Cl)n1 [Compound 25]
LEPTNO percent control of the plant disease compared with untreated, inoculated plants [1]: 98% | PUCCRT percent control of the plant disease compared with untreated, inoculated plants [2]: 100% | PHYTIN percent control of the plant disease compared with untreated, inoculated plants [3]: 94% | ERYSGT percent control of the plant disease compared with untreated, inoculated plants [4]: 77%

CNC(=O)C(=NOC)c1ccccc1COc1cccc(Sc2ccccc2F)n1 [Compound 27]
LEPTNO percent control of the plant disease compared with untreated, inoculated plants [1]: 98% | PUCCRT percent control of the plant disease compared with untreated, inoculated plants [2]: 100% | PHYTIN percent control of the plant disease compared with untreated, inoculated plants [3]: 100% | ERYSGT percent control of the plant disease compared with untreated, inoculated plants [4]: 77%

CNC(=O)C(=NOC)c1ccccc1COc1cccc(Sc2ccc(C)cc2)n1 [Compound 15]
LEPTNO percent control of the plant disease compared with untreated, inoculated plants [1]: 67% | PUCCRT percent control of the plant disease compared with untreated, inoculated plants [2]: 100% | PHYTIN percent control of the plant disease compared with untreated, inoculated plants [3]: 100% | ERYSGT percent control of the plant disease compared with untreated, inoculated plants [4]: 92%

CNC(=O)C(=NOC)c1ccccc1COc1nc(Sc2ccccc2)c(F)cc1F [Compound 32]
LEPTNO percent control of the plant disease compared with untreated, inoculated plants [1]: 98% | PUCCRT percent control of the plant disease compared with untreated, inoculated plants [2]: 100% | PHYTIN percent control of the plant disease compared with untreated, inoculated plants [3]: 100% | ERYSGT percent control of the plant disease compared with untreated, inoculated plants [4]: 77%

CNC(=O)C(=NOC)c1ccccc1COc1cccc(Sc2ccc(Br)cc2)n1 [Compound 19]
LEPTNO percent control of the plant disease compared with untreated, inoculated plants [1]: 98% | PUCCRT percent control of the plant disease compared with untreated, inoculated plants [2]: 100% | PHYTIN percent control of the plant disease compared with untreated, inoculated plants [3]: 100% | ERYSGT percent control of the plant disease compared with untreated, inoculated plants [4]: 98%

CNC(=O)C(=NOC)c1ccccc1COc1cccc(Sc2c(C)cccc2C)n1 [Compound 26]
LEPTNO percent control of the plant disease compared with untreated, inoculated plants [1]: 89% | PUCCRT percent control of the plant disease compared with untreated, inoculated plants [2]: 98% | PHYTIN percent control of the plant disease compared with untreated, inoculated plants [3]: 100% | ERYSGT percent control of the plant disease compared with untreated, inoculated plants [4]: 69%

CNC(=O)C(=NOC)c1ccccc1COc1cccc(Sc2cccc(C)c2)n1 [Compound 16]
LEPTNO percent control of the plant disease compared with untreated, inoculated plants [1]: 89% | PUCCRT percent control of the plant disease compared with untreated, inoculated plants [2]: 100% | PHYTIN percent control of the plant disease compared with untreated, inoculated plants [3]: 100% | ERYSGT percent control of the plant disease compared with untreated, inoculated plants [4]: 92%

CNC(=O)C(=NOC)c1ccccc1COc1cccc(Sc2ccccc2C(F)(F)F)n1 [Compound 29]
LEPTNO percent control of the plant disease compared with untreated, inoculated plants [1]: 78% | PUCCRT percent control of the plant disease compared with untreated, inoculated plants [2]: 100% | PHYTIN percent control of the plant disease compared with untreated, inoculated plants [3]: 100% | ERYSGT percent control of the plant disease compared with untreated, inoculated plants [4]: 98%

CNC(=O)C(=NOC)c1ccccc1COc1cccc(Sc2cccc3ccccc23)n1 [Compound 31]
LEPTNO percent control of the plant disease compared with untreated, inoculated plants [1]: 98% | PUCCRT percent control of the plant disease compared with untreated, inoculated plants [2]: 100% | PHYTIN percent control of the plant disease compared with untreated, inoculated plants [3]: 100% | ERYSGT percent control of the plant disease compared with untreated, inoculated plants [4]: 92%
